Test results from publication PMC6890839, “The Antimalarial Chloroquine Reduces the Burden of Persistent Atrial Fibrillation” (Frontiers in Pharmacology, 2019).
pIC50: −log10 of the molar value.

Test system: T1, Kir3.1 and Kir3.4 (IKACh)
T1 construct: gene KCNJ3; heterotetramer
Experiment: whole-cell patch clamp, HEK293, block of Ba-sensitive current
Format: cell-based
Settings: -140 mV step from -20 mV holding; about 24 °C; bath pH 7.4, 50 mM KCl; pipette 0.1 mM GTP; Hill slope -0.48

## CCN(CC)CCCC(C)Nc1ccnc2cc(Cl)ccc12 (stereo not shown) [chloroquine]
  pIC50: 5.92
